Each structure is given as a SMILES string.

The first assay deals with T1, rat B1R (Rattus norvegicus, UniProt P97583).
T1 construct: expressed in transfected cells; host or cells: CHO K1 cells
T1 sequence (P97583 1-337): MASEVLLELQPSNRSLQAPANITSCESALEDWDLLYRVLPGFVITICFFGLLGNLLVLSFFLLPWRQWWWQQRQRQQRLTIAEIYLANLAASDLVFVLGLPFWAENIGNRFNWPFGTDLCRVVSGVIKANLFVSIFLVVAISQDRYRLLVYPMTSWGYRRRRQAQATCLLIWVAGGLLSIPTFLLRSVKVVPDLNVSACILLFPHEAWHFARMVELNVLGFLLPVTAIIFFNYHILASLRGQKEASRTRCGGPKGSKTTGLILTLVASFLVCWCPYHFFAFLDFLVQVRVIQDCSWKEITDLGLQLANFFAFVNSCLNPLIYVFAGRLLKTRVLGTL
In words: FLIPR Ca2+ functional study on bradykinin receptor 1 (rB1R CHO K1 cells). It is filed as cell-based. The settings on record: % inhibition rat B1R at 10 μM. As to the method: The agonistic or antagonistic activity of substances can be quantified on the bradykinin receptor 1 (B1R) of the species human and rat using ectopically expressing cell lines (CHO K1 cells) and with the aid of a Ca^2+-sensitive dye (Fluo-4) using a fluorescent imaging plate reader (FLIPR). The indication in % activation is based on the Ca^2+ signal after addition of Lys-Des-Arg^9-bradykinin (0.5 nM) or Des-Arg^9-bradykinin (100 nM). Antagonists lead to suppression of the Ca^2+ influx after the addition of the agonist. % Inhibition compared with the maximum achievable inhibition is indicated.
The agonistic or antagonistic activity of substances can be determined on the bradykinin receptor 1 (B1R) of the species human and rat using the following assay. According to this assay, the Ca^2+ influx through the channel is quantified with the aid of a Ca^2+-sensitive dye (Fluo-4 type, Molecular Probes Europe BV, Leiden, Netherlands) using a Fluorescent Imaging Plate Reader (FLIPR, Molecular Devices, Sunnyvale, USA).
Chinese hamster ovary cells (CHO K1 cells) which have been stably transfected with the human B1R gene (hB1R cells) or with the B1R gene of the rat (rB1R cells) are used. For functional studies, the cells are plated out on black 96-well plates having a clear base (BD Biosciences, Heidelberg, Germany or Greiner, Frickenhausen, Germany) in a density of 20,000-35,000 cells/well. The cells are left overnight at 37° C. and with 5% CO2 in culture medium (hB1R cells: Nutrient Mixture Ham's F12, Gibco Invitrogen GmbH, Karlsruhe, Germany or DMEM, Sigma-Aldrich, Taufkirchen, Germany; rB1R cells: D-MEM/F12, Gibco Invitrogen GmbH, Karlsruhe, Germany), with 10 vol.% FBS (fetal bovine serum, Gibco Invitrogen GmbH, Karlsruhe, Germany or PAN Biotech GmbH, Aidenbach, Germany). On the following day, the cells are loaded for 60 minutes at 37° C. with 2.13 μM Fluo-4 (Molecular Probes Europe BV, Leiden, Netherlands) in HBSS buffer (Hank's buffered saline solution, Gibco Invitrogen GmbH, Karlsruhe, Germany) […] (Sigma-Aldrich, Taufkirchen, Germany) and 10 mM HEPES (Sigma-Aldrich, Taufkirchen, Germany). The plates are then washed twice with HBSS buffer, and HBSS buffer additionally containing 0.1% BSA (bovine serum albumin; Sigma-Aldrich, Taufkirchen, Germany), 5.6 mM glucose and 0.05% gelatin (Merck KGaA, Darmstadt, Germany) is added to the plates. After incubation for a further 20 minutes at room temperature, the plates are inserted into the FLIPR for Ca^2+ measurement. Alternatively, washing is carried out with buffer A (15 mM HEPES, 80 mM NaCl, 5 mM KCl, 1.2 mM CaCl2, 0.7 mM MgSO4, 2 g/l glucose, 2.5 mM probenecid) followed by loading with buffer A with added 2.5 μM Fluo-4 and 0.025% Pluronic F127 (Sigma-Aldrich, Taufkirchen, Germany). The cells are then washed twice with buffer A and incubated for 30 minutes at room temperature with buffer A additionally containing 0.05% BSA and 0.05% gelatin and are then inserted into the FLIPR for Ca^2+ measurement. The Ca^2+-dependent fluorescence is measured before and after the addition of substances (λex=488 nm, λem=540 nm). Quantification is carried out by measuring the highest fluorescence intensity (FC, fluorescence counts) over time.
The FLIPR protocol consists of two substance additions. Test substances (10 μM) are first pipetted onto the cells and the Ca^2+ influx is compared with the control (hB1R: Lys-Des-Arg^9-bradykinin>=50 nM; rB1R: Des-Arg^9-bradykinin 10 μM). This gives the activation in %, based on the Ca^2+ signal after addition of Lys-Des-Arg^9-bradykinin (>=50 nM) or Des-Arg^9-bradykinin (10 μM). After 10-20 minutes' incubation, Lys-Des-Arg^9-bradykinin (hB1R) or Des-Arg^9-bradykinin (rB1R) is applied in the concentration of the EC80, and the influx of Ca^2+ is likewise determined. Antagonists lead to suppression of the Ca^2+ influx. The % inhibition compared with the maximum achievable inhibition is calculated. […]
Take `COc1cc(C)c(S(=O)(=O)N(C)CCOc2nccc(N3CCC(CCN4CCCCC4)CC3)n2)c(C)c1` [G_CC-031]: the “% inh. (rat B1R) 10 μM” value is given as 104%.

`COc1cc(C)c(S(=O)(=O)N2CCC[C@H]2COc2nccc(N3CCC(CCN4CCCCC4)CC3)n2)c(C)c1` [G_CC-037]: the “% inh. (rat B1R) 10 μM” value amounted to 102%.

For `COc1cc(C)c(S(=O)(=O)N2CCC[C@@H]2COc2nccc(N3CCC(CNC(=O)c4ccncc4)(N4CCN(C)CC4)CC3)n2)c(C)c1` [G_CC-054, N-[[1-[2-[[(2R)-1-(4-methoxy-2,6-dimethylphenyl)sulfonyl-2-pyrrolidinyl)methoxy]-4-pyrimidinyl]-4-(4-methyl-1-piperazinyl)-4-pipendinyl]methyl]-4-pyridinecarboxamide], the “% inh. (rat B1R) 10 μM” value is 80%.

The same assay, now with this note: CHO-K1, % inhibition rat B1R at 10 μM, read-out: % inh. (rat B1R) 10 μM.
Take `COc1cc(C)c(S(=O)(=O)N(C)CCOc2nccc(N3CCC4(CC3)C(=O)NCN4c3ccccc3)n2)c(C)c1` [G_CC-030, 4-methoxy-N,2,6-trimethyl-N-[2-[[4-(1-oxo-4-phenyl-2,4,8-triazaspiro[4.5]decan-8-yl)-2-pyrimidinyl]oxy]ethyl]benzenesulfonamide]: the inhibition at 10 µM was 79%.

For `COc1cc(C)c(S(=O)(=O)N2CCC[C@H]2COc2nccc(N3CCC4(CC3)OCc3ccccc34)n2)c(C)c1` [G_CC-033, 1′-[2-[[(2S)-1-(4-methoxy-2,6-dimethylphenyl)sulfonyl-2-pyrrolidinyl]methoxy]-4-pyrimidinyl]spiro[1H-isobenzofuran-3,4′-piperidine]], the inhibition at 10 µM was found to be 68%.

In the case of `COc1cc(C)c(S(=O)(=O)N2CCC[C@H]2COc2nccc(N3CCC(n4c(=O)[nH]c5cc(Cl)ccc54)CC3)n2)c(C)c1` [G_CC-034, 6-chloro-3-[1-[2-[[(2S)-1-(4-methoxy-2,6-dimethylphenyl)sulfonyl-2-pyrrolidinyl]methoxy]-4-pyrimidinyl]-4-piperidinyl]-1H-benzimidazol-2-one], the inhibition at 10 µM is 93%.

In the case of `COc1cc(C)c(S(=O)(=O)N2CCCCC2COc2nccc(N3CCC4(CC3)CCN(c3ccc(F)cc3)C4=O)n2)c(C)c1` (stereo not drawn) [G_CC-038, 3-(4-fluorophenyl)-8-[2-[[1-(4-methoxy-2,6-dimethylphenyl)sulfonyl-2-piperidinyl]methoxy]-4-pyrimidinyl]-3,8-diazaspiro[4.5]decan-4-one], the inhibition at 10 µM came to 94%.

`COc1cc(C)c(S(=O)(=O)N(C)CCOc2nccc(N3CCC4(CC3)CCN(c3ccc(F)cc3)C4=O)n2)c(C)c1` [G_CC-042, N-[2-[[4-[3-(4-fluorophenyl)-4-oxo-3,8-diazaspiro[4.5]decan-8-yl]-2-pyrimidinyl]oxy]ethyl]-4-methoxy-N,2,6-trimethylbenzenesulfonamide]: the inhibition at 10 µM amounted to 87%.

Consider `COc1cc(C)c(S(=O)(=O)N(C)CCOc2nccc(N3CCC4(CC3)C(=O)NCC4c3cccc(C(F)(F)F)c3)n2)c(C)c1` (stereo not drawn) [G_CC-043, 4-methoxy-N,2,6-trimethyl-N-[2-[[4-[4-oxo-1-[3-(trifluoromethyl)phenyl]-3,8-diazaspiro[4.5]decan-8-yl]-2-pyrimidinyl]oxy]ethyl]benzenesulfonamide], for which the inhibition at 10 µM came to 70%.

Consider `COc1cc(C)c(S(=O)(=O)N(C)CCOc2nccc(N3CCC4(CC3)C(=O)N(C)CC4c3ccc(F)cc3)n2)c(C)c1` (stereo not drawn) [G_CC-044, N-[2-[[4-[1-(4-fluorophenyl)-3-methyl-4-oxo-3,8-diazaspiro[4.5]decan-8-yl]-2-pyrimidinyl]oxy]ethyl]-4-methoxy-N,2,6-trimethylbenzenesulfonamide], for which the inhibition at 10 µM came out at 68%.

As for `COc1cc(C)c(S(=O)(=O)N(C)CCOc2nccc(N3CCC4(CCN(Cc5ccc(F)cc5)C4=O)CC3)n2)c(C)c1` [G_CC-045, N-[2-[[4-[3-[(4-fluorophenyl)methyl]-4-oxo-3,8-diazaspiro[4.5]decan-8-yl]-2-pyrimidinyl]oxy]ethyl]-4-methoxy-N,2,6-trimethylbenzenesulfonamide], the inhibition at 10 µM is 96%.

Take `COc1cc(C)c(S(=O)(=O)N(C)CCOc2nccc(N3CCC4(CCN(Cc5ccccc5)C4=O)CC3)n2)c(C)c1` [G_CC-046, N-[2-[[4-(3-benzyl-4-oxo-3,8-diazaspiro[4.5]decan-8-yl)-2-pyrimidinyl]oxy]ethyl]-4-methoxy-N,2,6-trimethylbenzenesulfonamide]: the inhibition at 10 µM was found to be 96%.

For `COc1cc(C)c(S(=O)(=O)N2CCC[C@H]2COc2nccc(N3CCC4(CC3)C(=O)NCC4c3cccc(C(F)(F)F)c3)n2)c(C)c1` (stereo partly drawn) [G_CC-049, 8-[2-[[(2S)-1-(4-methoxy-2,6-dimethylphenyl)sulfonyl-2-pyrrolidinyl]methoxy]-4-pyrimidinyl]-1-[3-(trifluoromethyl)phenyl]-3,8-diazaspiro[4.5]decan-4-one], the inhibition at 10 µM worked out at 72%.

Consider `COc1cc(C)c(S(=O)(=O)N2CCC[C@H]2COc2nccc(N3CCC4(CC3)C(=O)N(C)CC4c3ccc(F)cc3)n2)c(C)c1` (stereo partly drawn) [G_CC-050, 1-(4-fluorophenyl)-8-[2-[[(2S)-1-(4-methoxy-2,6-dimethylphenyl)sulfonyl-2-pyrrolidinyl]methoxy]-4-pyrimidinyl]-3-methyl-3,8-diazaspiro[4.5]decan-4-one], for which the inhibition at 10 µM was found to be 73%.

Turning to `COc1cc(C)c(S(=O)(=O)N2CCC[C@H]2COc2nccc(N3CCC4(CCN(Cc5ccccc5)C4=O)CC3)n2)c(C)c1` [G_CC-053, 3-benzyl-8-[2-[[(2S)-1-(4-methoxy-2,6-dimethylphenyl)sulfonyl-2-pyrrolidinyl)methoxy]-4-pyrimidinyl]-3,8-diazaspiro[4.5]decan-4-one], the inhibition at 10 µM worked out at 96%.

In the case of `COc1cc(C)c(S(=O)(=O)N2CCCCC2COc2nccc(N3CC4CC3CN4Cc3ccncc3)n2)c(C)c1` (stereo not drawn) [G_CC-056, 5-[2-[[1-(4-methoxy-2,6-dimethylphenyl)sulfonyl-2-piperidinyl]methoxy]-4-pyrimidinyl]-2-(4-pyridylmethyl)-2,5-diazabicyclo[2.2.1]heptane], the inhibition at 10 µM worked out at 98%.

As for `COc1cc(C)c(S(=O)(=O)N2CCCC(Oc3nccc(N4CC5CC4CN5Cc4ccncc4)n3)C2)c(C)c1` (stereo not drawn) [G_CC-057, 5-[2-[[1-(4-methoxy-2,6-dimethylphenyl)sulfonyl-3-piperidinyl]oxy]-4-pyrimidinyl]-2-(4-pyridylmethyl)-2,5-diazabicyclo[2.2.1]heptane], the inhibition at 10 µM came out at 90%.

With `COc1cc(C)c(S(=O)(=O)N2CCC[C@H]2COc2nccc(N3CC4CC3CN4Cc3ccncc3)n2)c(C)c1` (stereo partly drawn) [G_CC-058, 5-[2-[[(2S)-1-(4-methoxy-2,6-dimethylphenyl)sulfonyl-2-pyrrolidinyl)methoxy]-4-pyrimidinyl]-2-(4-pyridylmethyl)-2,5-diazabicyclo[2.2.1]heptane], the inhibition at 10 µM was found to be 93%.

(Values after patent US8269000B2, “Substituted pyrimidine and triazine compounds” (Gruenenthal GmbH, priority 2008, dated 2012).)
